Data on 47 compounds can be found in patent publication US6410561B1, “Amide derivatives and nociceptin antagonists” (Japan Tobacco Inc., priority 1998, dated 2002).

Where a name gives a salt, the structure may show the parent alone.

The target of one data set is T1, ORL-1 receptor (Homo sapiens, UniProt P41146).
T1 construct: expressed in transfected cells
Briefly: ORL1 receptor binding assay ([3H]nociceptin). Conditions: for Ki: calculated from IC50 and Kd of [3H]nociceptin; for IC50: membrane of human ORL-1 expression cells, [3H]nociceptin 0.5 nM. The method, then:
ORL1 Receptor Binding Assay
A cell membrane suspension obtained from human ORL-1 expression cells was adjusted with Tris buffer [50 mM Tris, 2 mM EDTA, 0.1 mM (p-Amidinophenyl)methanesulfonyl Fluoride Hydrochloride (p-APMSF), 2 mg/ml BSA] to membrane protein amount of about 25 μg/ml (2.5 μg/well). This was mixed with [^3H]nociceptin (diluted with Tris buffer to a final concentration of 0.5 nM) and test compound (diluted with Tris buffer to a final concentration of 10 nM-10 μM), and the mixture was incubated at room temperature for 60 min. The membrane was recovered on a G/F-B filter (Packard, Unifilter 96GF/B) using a cell harvester and the reaction was stopped. After washing 3 times, the filter was dried at 42° C. for 1 hr. A scintillation solution (Packard, microscint-20) was added and the radioactivity (Packard, Top count A9912V) was assayed.
The nonspecific binding was the binding in the presence of 1 μM nociceptin and the difference between the total binding and nonspecific binding was taken as the specific binding. IC50 was calculated from inhibition of specific binding at each concentration of the compound, and Ki value of the test compound was calculated from this value and Kd value of [^3H]nociceptin.

A further data set has as its target T2, μ receptor (Rattus norvegicus, UniProt P33535).
T2 construct: Rat cerebrum membrane standard sample; from tissue; host or cells: rat cerebrum membranes
Briefly: μ receptor binding assay ([3H]DAMGO). As to conditions: for Ki: calculated from IC50 and Kd of [3H]DAMGO; for IC50: rat cerebrum membrane, [3H]DAMGO 1 nM. As for the experimental part: Rat cerebrum membrane standard sample (final concentration 0.755 mg·protein/ml), [^3H]DAMGO (Try-D-Ala-Gly-NMe-Phe-Gly-ol) [diluted with Tris buffer (50 mM Tris-HCl, 0.1 mM p-APMSF, 2 mg/ml BSA (pH=7.4)) to a final concentration of 1 nM] and test compound (diluted with Tris buffer to a final concentration of 10 nM-10 μM) were mixed, and the mixture was incubated at room temperature for 90 min. The membrane was recovered on a G/F-B filter (same as above) using a cell harvester and the reaction was stopped. After washing 3 times, the filter was dried at 42° C. for 1 hr. A scintillation solution (same as above) was added and the radioactivity (same as above) was assayed.
The nonspecific binding was the binding in the presence of 10 μM naloxone and the difference between the total binding and nonspecific binding was taken as the specific binding. IC50 was calculated from inhibition of specific binding at each concentration of the compound, and Ki value of the test compound was calculated from this value and Kd value of [^3H]DAMGO.

The next data set concerns allodynia model. In words: Allodynia test (intrathecal nociceptin, tactile stimulation). Conditions: Mus musculus; mice, oral, 60 min before nociceptin 50 pg i.t.; score at 20 min; read-out: Allodynia M.E.D. (minimum effective dose). The class given is in vivo, Mice. As for the experimental part: Mice (Crj, ICR, 4-week-old, male) were intrathecally administered with nociceptin (50 pg/5 μl) without anesthesia. For 20 min after administration and at 5 min intervals, an area from lateral region to tail of the mice was rubbed with a brush and the response of the mice was observed. The evaluation followed the criteria of 0; no change, 1; run or cry upon tactile stimulation, and 2; cry loud or dash away upon tactile stimulation. The test compound was suspended in a 0.5% MC solution and orally administered 60 min before nociceptin administration. The significant difference of the score of each administration group at 20 min after nociceptin administration from the group administered with solvent was analyzed with Mann-Whitny U-test.

T2 sequence (P33535 whole entry): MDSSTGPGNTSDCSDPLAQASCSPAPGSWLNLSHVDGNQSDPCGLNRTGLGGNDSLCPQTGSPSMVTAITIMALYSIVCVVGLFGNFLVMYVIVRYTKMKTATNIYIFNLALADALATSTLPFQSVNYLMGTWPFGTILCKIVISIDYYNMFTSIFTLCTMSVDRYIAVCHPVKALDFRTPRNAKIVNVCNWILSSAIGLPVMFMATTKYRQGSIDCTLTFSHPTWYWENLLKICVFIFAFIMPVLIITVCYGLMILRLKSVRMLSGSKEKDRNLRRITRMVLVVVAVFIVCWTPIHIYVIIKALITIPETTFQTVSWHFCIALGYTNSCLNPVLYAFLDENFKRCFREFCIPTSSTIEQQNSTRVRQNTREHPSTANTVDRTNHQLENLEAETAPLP
T1 sequence (P41146 whole entry): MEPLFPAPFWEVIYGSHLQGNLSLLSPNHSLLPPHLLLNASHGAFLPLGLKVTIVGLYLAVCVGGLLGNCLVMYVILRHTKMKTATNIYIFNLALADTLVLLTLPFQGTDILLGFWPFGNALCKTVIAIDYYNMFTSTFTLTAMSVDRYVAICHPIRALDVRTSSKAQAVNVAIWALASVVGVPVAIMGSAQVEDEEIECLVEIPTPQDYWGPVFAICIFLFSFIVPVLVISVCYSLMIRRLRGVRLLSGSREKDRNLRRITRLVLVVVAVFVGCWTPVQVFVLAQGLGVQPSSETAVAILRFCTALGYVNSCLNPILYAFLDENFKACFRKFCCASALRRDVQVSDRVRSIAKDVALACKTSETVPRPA

The term melting point denotes the temperature, or range, at which the solid turns liquid. The compound `Cc1cc(N)c2cc(NC(=O)c3ccccc3CN(C(=O)OC(C)(C)C)c3ccc(Cl)cc3)ccc2n1.Cl` gave a melting point of 208 °C.
Compound `Cc1cc(N)c2cc(NC(=O)c3sccc3COc3ccc(Cl)cc3)ccc2n1.Cl` registered a melting point of 219 °C.
Still for that read-out and setting: as for `CNc1cc(C)nc2ccc(NC(=O)c3ccccc3COc3ccccc3)cc12.Cl`, the figure is 284 °C; as for `CCc1ccc(OCc2ccccc2C(=O)Nc2ccc3nccc(N)c3c2)cc1.Cl`, 219 °C.
In turn, `Cl.Nc1ccnc2ccc(NC(=O)c3ccccc3COc3ccc(Cl)cc3)cc12` gave a melting point of 231 °C.
Compound `Cl.Nc1c2c(nc3ccc(NC(=O)c4ccccc4COc4ccc(Cl)cc4)cc13)CCCC2` came in with a melting point of 283 °C.
For the compound `CSc1nc2ccc(NC(=O)c3ccccc3COc3ccccc3)cc2[nH]1.Cl`, the melting point turned out to be 191 °C.
On to `Cl.Nc1cccc2ccc(NC(=O)c3ccccc3COc3ccccc3)cc12`, for which the melting point turned out to be 237 °C.
Compound `Cc1ccc(OCc2ccccc2C(=O)Nc2ccc3nc(CO)cc(N)c3c2)cc1.Cl` gave a melting point of 201 °C.
For the compound `Cl.Nc1ccc(NC(=O)c2ccccc2COc2ccccc2)cc1`, the melting point amounted to 241 °C.
The compound `COc1cccc(OCc2ccccc2C(=O)Nc2ccc3nc(C)cc(N)c3c2)c1.Cl` had a melting point of 224 °C.
In turn, `Cc1cc(N)c2cc(NC(=O)c3ccccc3COc3ccc(-c4ccccc4)cc3)ccc2n1.Cl` returned a melting point of 268 °C.
Same read-out and setting: as for `Cc1cc(N)c2cc(NC(=O)c3ccccc3COc3ccc(C(C)C)cc3)ccc2n1.Cl`, the figure is 256 °C; as for `Cc1cc(N)c2cc(NC(=O)c3ccccc3COc3cccc(F)c3)ccc2n1.Cl`, 255 °C; as for `Cc1cc(N)c2cc(NC(=O)c3ccccc3COc3cccc(C(F)(F)F)c3)ccc2n1.Cl`, 253 °C.
Take `COC(=O)c1ccc(OCc2ccccc2C(=O)Nc2ccc3nc(C)cc(N)c3c2)cc1.Cl`: the melting point was found to be 262 °C.
Still for that read-out and setting: to `Cc1cc(N)c2cc(NC(=O)c3ccccc3COc3cccnc3)ccc2n1.Cl` belongs 207 °C; to `Cc1cc(N)c2cc(NC(=O)c3ccccc3COc3ccc(C(=O)O)cc3)ccc2n1.Cl`, 225 °C.
For `Cc1cc(N)c2cc(NC(=O)c3ccccc3COc3cccc(C#N)c3)ccc2n1.Cl`, the melting point is 195 °C.
The compound `CC(=O)OCc1ccc(OCc2ccccc2C(=O)Nc2ccc3nc(C)cc(N)c3c2)cc1.Cl` yielded a melting point of 258 °C.
In turn, `Cc1cc(N)c2cc(NC(=O)c3ccccc3COc3ccc(CO)cc3)ccc2n1.Cl` returned a melting point of 273 °C.
On the same count and under the same terms, as for `COc1ccc(OCc2ccccc2C(=O)Nc2ccc3nc(C)cc(N)c3c2)cc1OC.Cl`, the figure is 270 °C; as for `Cc1cc(N)c2cc(NC(=O)c3ccccc3COc3ccc4c(c3)CCCC4)ccc2n1.Cl`, 176 °C.
The compound `Cc1cc(N)c2cc(NC(=O)c3cccc(CCc4ccccc4)c3)ccc2n1.Cl` showed a melting point greater than 300 °C.
Take `Cc1cc(N)c2cc(NC(=O)c3ccccc3CCCCc3ccccc3)ccc2n1.Cl`: the melting point is 233 °C.
For `Cc1cc(N)c2cc(NC(=O)c3ccccc3CCCCCCc3ccccc3)ccc2n1.Cl`, the melting point amounted to 213 °C.
Compound `Cc1ccc(CCc2ccccc2C(=O)Nc2ccc3nc(C)cc(N)c3c2)cc1.Cl` showed a melting point greater than 300 °C.
With `Cc1cc(N)c2cc(NC(=O)c3ccccc3OCc3ccccc3)ccc2n1.Cl`, the melting point is 240 °C.
Turning to `Cc1cc(N)c2cc(NC(=O)c3ccccc3COc3ccc4occc4c3)ccc2n1.Cl`, the melting point is 269 °C.
For `COCc1ccccc1C(=O)Nc1ccc2nc(C)cc(N)c2c1.Cl`, the melting point is 244 °C.
On to `Cc1cc(N)c2cc(NC(=O)c3ccccc3CSc3ccc(Cl)cc3)ccc2n1.Cl`, for which the melting point came out at 216 °C.
Compound `Cc1cc(N)c2cc(NC(=O)c3ccccc3C[S+]([O-])c3ccc(Cl)cc3)ccc2n1.Cl` (centres unmarked) had a melting point of 221 °C.
`Cc1cc(N)c2cc(NC(=O)c3ccccc3COc3ccc(N(C)C)cc3)ccc2n1` (as salt: hydrochloride): the melting point was 233 °C.
For `Cc1cc(N)c2cc(NC(=O)c3ccccc3COc3ccc(N)cc3)ccc2n1` (as salt: hydrochloride) [Example 23, N-(4-amino-2-methyl-6-quinolyl)-2-[(4-aminophenoxy)methyl]benzamide dihydrochloride], the melting point is 237 °C.
As a reminder, the Ki is the equilibrium dissociation constant of an inhibitor or competing ligand from its target. As a reminder, the IC50 is the point on the concentration scale where inhibition reaches its midpoint. The low end stands for greater potency, the high end for weaker potency. On to `COc1cc(OC)cc(OCc2ccccc2C(=O)Nc2ccc3nc(C)cc(N)c3c2)c1.Cl` [Example 10, N-(4-amino-2-methyl-6-quinolyl)-2-[(3,5-dimethoxyphenoxy)methyl]benzamide hydrochloride], for which, on ORL-1 receptor, the Ki was 53 nM and the IC50 was 1020 nM. Besides, at μ receptor, the Ki was 324 nM and the IC50 was found to be 860 nM. Also, in the data set on allodynia model, the minimal effective dose was found to be 3 mg/kg.
With `Cc1cc(N)c2cc(NC(=O)c3ccccc3COc3ccc(F)cc3)ccc2n1.Cl` [Example 25, N-(4-amino-2-methyl-6-quinolyl)-2-[(4-fluorophenoxy)methyl]benzamide hydrochloride], on ORL-1 receptor, the Ki is 8 nM and the IC50 is 150 nM. Besides, at μ receptor, the Ki was 464 nM and the IC50 came out at 1180 nM. The minimal effective dose with allodynia model was greater than 0.3 mg/kg.
`Cc1cc(N)c2cc(NC(=O)c3ccccc3COc3ccc(I)cc3)ccc2n1` [Example 38, N-(4-amino-2-methyl-6-quinolyl)-2-[(4-iodophenoxy)methyl]benzamide]: at ORL-1 receptor, the Ki is 5 nM and the IC50 amounted to 90 nM. Besides, at μ receptor, the Ki is 1020 nM and the IC50 came out at 2670 nM. Also, the minimal effective dose with allodynia model was greater than 0.3 mg/kg.
Take `CCc1cc(N)c2cc(NC(=O)c3ccccc3COc3ccc(Cl)cc3Cl)ccc2n1` [Example 51]: on ORL-1 receptor, the Ki is 8 nM and the IC50 stood at 170 nM. Moreover, at μ receptor, the Ki was 525 nM and the IC50 turned out to be 1400 nM.
Regarding `Cc1cc(N)c2cc(NC(=O)c3ccccc3CCCOc3ccccc3)ccc2n1.Cl` [Example 61], on ORL-1 receptor, the Ki was 63 nM and the IC50 is 1220 nM. For the same compound, on μ receptor, the inhibition constant (Ki) was 2010 nM and the IC50 was found to be 5350 nM. Besides, in the data set on allodynia model, the minimal effective dose was determined as 3 mg/kg.
For `Cc1cc(N)c2cc(NC(=O)c3ccccc3CCOc3ccccc3)ccc2n1.Cl` [Example 62] the same measures were 125 nM, 2360 nM, 783 nM, 2000 nM and greater than 3 mg/kg.
As to `Cc1cc(N)c2cc(NC(=O)c3ccccc3CCCCCCCOc3ccccc3)ccc2n1.Cl` [Example 65], on ORL-1 receptor, the Ki was 64 nM and the IC50 was determined as 1160 nM. Besides, the minimal effective dose in the data set with allodynia model was greater than 3 mg/kg.
For `Cc1cc(N)c2cc(NC(=O)c3ccccc3CCc3ccccc3)ccc2n1` [Example 71] the same measures were 89 nM, 1770 nM and 30 mg/kg.
`Cc1cc(N)c2cc(NC(=O)c3ccccc3CN(C)c3ccc(Cl)cc3)ccc2n1` [Example 101] registered a melting point of 214 °C.
`Cc1cc(N)c2cc(NC(=O)c3ccccc3CNc3ccc(Cl)cc3)ccc2n1` [Example 102] displayed a melting point of 274 °C.
`Cc1cc(N)c2cc(NC(=O)[C@@H]3CCCN3CCOc3ccc(Cl)cc3)ccc2n1` [Example 113] returned a melting point of 216 °C.
Compound `Cc1cc(N)c2cc(NC(=O)[C@@H]3CCCN3CCCOc3ccc(Cl)cc3)ccc2n1` [Example 114] registered a melting point of 211 °C.
`Cc1cc(N)c2cc(NC(=O)[C@H]3CCCN3CCOc3ccc(Cl)cc3)ccc2n1` [Example 115]: the melting point stood at 253 °C.
